{"source": "patent US20230355646A1", "about": "“AUTOPHAGY ACTIVATOR” (Resonac Corporation, priority 2020, published 2023)", "key": {"ATG5 gene": {"system": "ATG5 gene", "test": "ATG5 gene expression promoting effect in human neuroblastoma SH-SY5Y in the presence of amyloid β", "assay_type": "cell-based", "method": "(§1) In the presence of an autophagy activator, the expression levels of the LC3 gene, ATG5 gene, and ATG7 gene in human neuroblastoma (SH-SY5Y; obtained from ATCC) were measured by the following test method, and the effect of promoting the expression of the LC3 gene, ATG5 gene, and ATG7 gene by an autophagy activator was evaluated.\n(§2) In the following examples and comparative examples, tests were performed by adding amyloid β, which is known to cause a decrease in autophagy in nerve cells, to each medium.\n(§3) SH-SY5Y cells were prepared at a seeding density of 10000 cells/cm^2 and cultured for 24 hours in D-MEM medium/Ham's F-12 medium (manufactured by Sigma-Aldrich) to which 10% fetal bovine serum (manufactured by MP Biomedicals) was added. Next, in Example 15, the methyl hesperidin DMSO solution was added to the medium such that the final concentration of methyl hesperidin was 10^−3% (V/V) and the final concentration of DMSO was 0.1% (V/V). […]\n(§4) Then, using Nucleospin (registered trademark) RNA kit (manufactured by Takara Bio Inc.), RNA was extracted from SH-SY5Y cells in each example, and cDNA was synthesized from the obtained RNA. Next, using this cDNA as a template, by quantitative real-time PCR, the expression level of each gene was quantified using primers (manufactured by Takara Bio Inc.) specific to the LC3 gene, ATG5 gene, and ATG7 gene, respectively. […]"}, "ATG7 gene": {"system": "ATG7 gene", "test": "ATG7 gene expression promoting effect in human neuroblastoma SH-SY5Y in the presence of amyloid β", "assay_type": "cell-based", "method": "as §1, §2, §3, §4"}, "[1]": {"conditions": "SH-SY5Y cells with amyloid β, compared to DMSO and amyloid β of Comparative Example 5"}, "[2]": {"conditions": "SH-SY5Y cells, 20 μM amyloid β present, 10^−2% (V/V) methyl hesperidin or hesperidin, additional ingredient where in the example, 48 hours, Reference Example 3 = 1.00"}}, "data": [{"smiles": "COc1ccc([C@@H]2CC(=O)c3c(O)cc(O[C@@H]4O[C@H](CO[C@@H]5O[C@@H](C)[C@H](O)[C@@H](O)[C@H]5O)[C@@H](O)[C@H](O)[C@H]4O)cc3O2)cc1O", "note": "[Comparative Example 2, hesperidin]", "values": [{"measurement": "expression level of the ATG5 gene (in words)", "setting": "ATG5 gene; [1]", "result": "increased"}, {"measurement": "Relative gene expression level ATG5", "setting": "ATG5 gene; [2]", "result": 3.29}, {"measurement": "expression level of the ATG7 gene (in words)", "setting": "ATG7 gene; [1]", "result": "increased"}, {"measurement": "Relative gene expression level ATG7", "setting": "ATG7 gene; [2]", "result": 2.31}]}]}
